We go through 14 molecules from patent US20110009628A1, “Compounds and Compositions for Modulating Lipid Levels and Methods of Preparing Same” (priority 2009, published 2011).

Type in all cases: cell-based, human
The subject of assay [1] is LDLR mRNA expression in HepG2 cells. Kind of assay: LDLR mRNA expression in HepG2 cells, quantitative real-time RT-PCR (Example 7). Particulars: dose less than or equal to 10 μM, 24 hours. The method, then:
In yet another experiment, HepG2 cells were treated with various compounds for 24 hours at the indicated doses. Total RNA was isolated and 2 μg was used to generate cDNA in a reaction containing random primers and M-MLV at 37° C. for 1 hour in a volume of 25 μL. Real-time PCR was performed on the cDNA using MCEP REALPLEX 2 SYSTEM (Eppendorf) and Universal MasterMix (Applied Biosystems). Human LDLR and GAPDH Pre-Developed TaqMan Assay Reagents (Applied Biosystems) were used to assess the levels of mRNA expressions in HepG2. The levels of LDLR mRNA were normalized to that of GAPDH. Each RNA samples was assayed in triplicate. The abundance of LDLR mRNA in untreated cells was defined as 1, and the amounts of LDLR mRNA from compound-treated cells were plotted relative to that value in FIG. 2B. The data shown are mean±s.d.
Activities of some compounds of Formulas I, II and EE on LDLR mRNA expression were determined. HepG2 cells were treated with new compounds individually at a dose less than or equal to 10 μM for 24 hours. […] In these experiments, berberine chloride was included for comparison.
On the technique in general: In qPCR the cycle at which signal appears reflects the starting amount.

Assay [2] has as its system LDL ligand uptake activity in HepG2 cells. Put plainly: DiI-LDL uptake in HepG2 cells (Example 12). The method, then: The combined beneficial effects of these novel compounds on elevation of LDLR mRNA levels likely through the mechanism of mRNA stabilization and their inhibitory activity towards PCSK9, the secreted protease that degrades LDLR protein, result in strong increases in LDL ligand uptake activity through increased receptor surface abundance. […] Briefly, HepG2 cells (2×10^5 cells/well) in 24-well culture plates were treated with various compounds at 10 and 40 uM concentrations for 20 hours. The fluorescent 1.1′-dioctadecyl-3,3,3′,3′-tetramethylindocarbocyanin perchlorate (DiI-LDL) (Biomedical Technologies, Stoughton, Mass.) at a concentration of 2 μg/ml was added to cells at the end of treatment. After 4 hours, the medium was removed; cells were washed with cold PBS, and were examined immediately under a fluorescent microscope (Nikon) at 200× amplification. The fluorescent intensity in compound-treated cells was compared to that in untreated control cells. […]

Assay [3] relates to LDLR mRNA expression in HepG2 cells. Put plainly: LDLR mRNA expression in HepG2 cells, quantitative real-time RT-PCR (Example 12). To be noted: 24 hours; for fold induction at 10 µM / fold induction at 40 µM: Homo sapiens; for fold induction at 10 µM: read-out: Activity on LDLR mRNA at 10 uM (fold of control); for fold induction at 40 µM: read-out: Activity on LDLR mRNA at 40 uM (fold of control). The method, then:
(§1) The effects of compounds on the mRNA expressions of LDLR and PCSK9 were examined using quantitative real-time RT-PCR assays. HepG2 cells were treated with various compounds at 10 and 40 uM concentrations for 24 hours. Total RNA was isolated and […] was used to generate cDNA in a reaction containing random primers and M-MLV at 37° C. for 1 h in a volume of 25 μL. Real-time PCR was performed on the cDNA using MCEP REALPLEX 2 SYSTEM (Eppendorf) and Universal MasterMix (Applied Biosystems). Human LDLR, PCSK9, and GAPDH Pre-Developed TaqMan Assay Reagents (Applied Biosystems) were used to assess the levels of mRNA expressions in HepG2. The levels of LDLR and PCSK9 mRNA were normalized to that of GAPDH. Each RNA samples was assayed in duplicate. The fold activity was calculated by dividing mRNA abundance in compound treated cells with that of control.

Assay [4] relates to PCSK9 mRNA expression in HepG2 cells. Kind of assay: PCSK9 mRNA expression in HepG2 cells, quantitative real-time RT-PCR (Example 12). Particulars: 24 hours. The method, then:
as §1

Setting [5] is: 40 uM, 20 hours (second symbol of cell).
Where [6] appears, read: 10 uM, 20 hours (first symbol of cell).

Regarding `COc1ccc2c(c1OS(=O)(=O)c1cccnc1)CN1CCc3cc4c(cc3C1C2)OCO4` (stereo not shown) [Compound 101, 10-methoxy-5,6,7,8,13,13a-hexahydro-2H-1,3-dioxolano [4,5-g]isoquinolino[3,2-a]isoquinolin-9-yl pyridine-3-sulfonate], the “Activity on LDLR mRNA expression (Fold of control)” value in assay [1] is recorded as 1.97 ± 0.00 Fold of control.
For the molecule `COc1ccc2c(c1OS(=O)(=O)c1ccccc1)CN1CCc3cc4c(cc3C1C2)OCCO4` (stereo not shown) [Compound 115, 11-Methoxy-6,7,8,9,14,14a-hexahydro-2H,3H-1,4-dioxano[5,6-g]isoquinolino[3,2-a]isoquinolin-10-yl benzenesulfonate], the “Activity in LDL uptake (relative to control)” value in assay [2] (setting [5]) is listed as “+++”. Besides, the “Activity on LDLR mRNA at 10 uM (fold of control)” value in assay [3] (10 uM) is on record as 0.51 ± 0.11 fold of control. Further, the “Activity on LDLR mRNA at 40 uM (fold of control)” value in assay [3] (40 uM) is given as 2.65 ± 0.06 fold of control.
With `COc1ccc2c(c1)CCN1Cc3c(ccc(OC)c3OS(=O)(=O)c3ccccc3)CC21` (stereo not shown) [Compound 116, 3,10-Dimethoxy-5,6,7,8,13,13a-hexahydroisoquinolino[2,1-b]isoquinolin-9-yl benzenesulfonate], the “Activity in LDL uptake (relative to control)” value in assay [2] (setting [6]) and in assay [2] (setting [5]) was “+++/+++” each time. Moreover, in assay [3] (10 uM), the fold induction at 10 µM was 1.41 ± 0.04. Further, the fold induction at 40 µM in assay [3] (40 uM) is 7.19 ± 1.29.
In the case of `COc1ccc2c(c1OS(=O)(=O)c1ccccc1)CN1CCc3cc(C)ccc3C1C2` (stereo not shown) [Compound 121, 10-Methoxy-3-methyl-5,6,7,8,13,13a-hexahydroisoquinolino[2,1-b]isoquinolin-9-yl benzenesulfonate], the results for the “Activity in LDL uptake (relative to control)” value in assay [2] (setting [6]) and in assay [2] (setting [5]) were “+++” and “+”, respectively. In addition, in assay [3] (10 uM), the fold induction at 10 µM amounted to 3.56 ± 0.03. For the same molecule, the fold induction at 40 µM in assay [3] (40 uM) came to 3.43 ± 0.81.
On to `COc1cc2c(cc1OC)C1Cc3ccc(OC)c(OS(=O)(=O)c4cccc(F)c4)c3CN1CC2` (stereo not shown) [Compound 127, 2,3,10-Trimethoxy-5,6,7,8,13,13a-hexahydroisoquinolino[2,1-b]isoquinolin-9-yl 3-fluorobenzenesulfonate], for which, in assay [2] (setting [6]), the “Activity in LDL uptake (relative to control)” value is on record as “+++/+++”. In addition, the “Activity in LDL uptake (relative to control)” value in assay [2] (setting [5]) is given as “+++/+++”. For the same molecule, the fold induction at 10 µM in assay [3] (10 uM) worked out at 1.8 ± 0.13. The fold induction at 40 µM in assay [3] (40 uM) was 2.38 ± 0.38. In addition, in assay [4], the “PCSK9 mRNA level at 10 uM (fold of control)” value is 0.197 ± 0.014 fold of control and the “Activity on PCSK9 mRNA reduction at 40 uM (fold of control)” value is listed as 0.192 ± 0.016 fold of control. In assay [4] (10 and 40 uM), the “PCSK9 mRNA expression, in words” value is listed as “strongly inhibits PCSK9 expression”.
`COc1ccc2c(c1)CCN1Cc3c(ccc(OC)c3OS(=O)(=O)c3cccc(F)c3)CC21` (stereo not shown) [Compound 128, 3,10-Dimethoxy-5,6,7,8,13,13a-hexahydroisoquinolino[2,1-b]isoquinolin-9-yl 3-fluorobenzenesulfonate]: in assay [2] (setting [6]), the “Activity in LDL uptake (relative to control)” value is reported as “+++/+++”. The “Activity in LDL uptake (relative to control)” value in assay [2] (setting [5]) is “+++/+++”. Also, the fold induction at 10 µM in assay [3] (10 uM) came out at 7.52 ± 0.26. Further, in assay [3] (40 uM), the fold induction at 40 µM is 13.4 ± 0.46. Moreover, in assay [4], the “PCSK9 mRNA level at 10 uM (fold of control)” value is 0.96 ± 0.00 fold of control and the “Activity on PCSK9 mRNA reduction at 40 uM (fold of control)” value is 0.86 ± 0.029 fold of control.
On to `COc1ccc2c(c1OS(=O)(=O)c1cccc(F)c1)CN1CCc3cc4c(cc3C1C2)OCCO4` (stereo not shown) [Compound 129, 11-Methoxy-6,7,8,9,14,14a-hexahydro-2H,3H-1,4-dioxano[5,6-g]isoquinolino[3,2-a]isoquinolin-10-yl 3-fluorobenzenesulfonate], for which the “Activity in LDL uptake (relative to control)” value in assay [2] (setting [6]) is on record as “+”; in assay [2] (setting [5]), “++”. For the same molecule, the fold induction at 10 µM in assay [3] (10 uM) turned out to be 2.49 ± 0.18. In assay [3] (40 uM), the fold induction at 40 µM was determined as 1.99 ± 0.13. The “PCSK9 mRNA level at 10 uM (fold of control)” value in assay [4] is on record as 1.57 ± 0.07 fold of control. Also, the “Activity on PCSK9 mRNA reduction at 40 uM (fold of control)” value in assay [4] is on record as 1.68 ± 0.41 fold of control.
`COc1ccc2c(c1OS(=O)(=O)c1cccc(F)c1)CN1CCc3cc(C)ccc3C1C2` (stereo not shown) [Compound 130, 10-Methoxy-3-methyl-5,6,7,8,13,13a-hexahydroisoquinolino[2,1-b]isoquinolin-9-yl 3-fluorobenzenesulfonate]: the “Activity in LDL uptake (relative to control)” value in assay [2] (setting [6]) is reported as “++”. Besides, the “Activity in LDL uptake (relative to control)” value in assay [2] (setting [5]) is recorded as “+”. Also, the fold induction at 10 µM in assay [3] (10 uM) was 4.29 ± 0.65. In addition, in assay [3] (40 uM), the fold induction at 40 µM was 9 ± 1.49. Also, in assay [4], the “PCSK9 mRNA level at 10 uM (fold of control)” value is reported as 2.11 ± 0.11 fold of control and the “Activity on PCSK9 mRNA reduction at 40 uM (fold of control)” value was 0.84 ± 0.12 fold of control.
For the molecule `COC(=O)c1cc2c(cc1OC)CCN1Cc3c(ccc(OC)c3OS(=O)(=O)c3ccccc3)CC21` (stereo not shown) [Compound 131, Methyl 3,10-dimethoxy-9-(phenylsulfonyloxy)-5,6,7,8,13,13a-hexahydroisoquinolino[3,2-a]isoquinoline-2-carboxylate], in assay [2] (setting [6]), the “Activity in LDL uptake (relative to control)” value is given as “+/+”. Further, the “Activity in LDL uptake (relative to control)” value in assay [2] (setting [5]) is listed as “+/+”. The fold induction at 10 µM in assay [3] (10 uM) was determined as 0.67 ± 0.05. In addition, the fold induction at 40 µM in assay [3] (40 uM) worked out at 2.25 ± 0.13. Moreover, in assay [4], the “PCSK9 mRNA level at 10 uM (fold of control)” value is on record as 0.87 ± 0.04 fold of control and the “Activity on PCSK9 mRNA reduction at 40 uM (fold of control)” value is recorded as 0.72 ± 0.10 fold of control.
Consider `COc1cc2c(cc1CO)C1Cc3ccc(OC)c(OS(=O)(=O)c4ccccc4)c3CN1CC2` (stereo not shown) [Compound 132, 2-(Hydroxymethyl)-3,10-dimethoxy-5,6,7,8,13,13a-hexahydro isoquinolino[2,1-b]isoquinolin-9-yl benzenesulfonate], for which the “Activity in LDL uptake (relative to control)” value in assay [2] (setting [6]) was “++”; in assay [2] (setting [5]), “+”. Also, in assay [3] (10 uM), the fold induction at 10 µM turned out to be 2.33 ± 0.04. Moreover, the fold induction at 40 µM in assay [3] (40 uM) was 6.62 ± 0.9. The “PCSK9 mRNA level at 10 uM (fold of control)” value in assay [4] was 1.85 ± 0.12 fold of control. For the same molecule, the “Activity on PCSK9 mRNA reduction at 40 uM (fold of control)” value in assay [4] is recorded as 0.73 ± 0.15 fold of control.
For `COc1cc2c(cc1OCC(=O)O)C1Cc3ccc(OC)c(OS(=O)(=O)c4ccccc4)c3CN1CC2` (stereo not shown) [Compound 144, 2-[3,10-dimethoxy-9-(phenylsulfonyloxy)-5,6,7,8,13,13a-hexahydroisoquinolino[3,2-a]isoquinolin-2-yloxy]acetic acid], the fold induction at 10 µM in assay [3] (10 uM) was 1.02 ± 0.09. The fold induction at 40 µM in assay [3] (40 uM) came to 2.69 ± 0.31. Besides, in assay [4], the “PCSK9 mRNA level at 10 uM (fold of control)” value is 0.99 ± 0.09 fold of control and the “Activity on PCSK9 mRNA reduction at 40 uM (fold of control)” value is listed as 1.84 ± 0.15 fold of control.
On to `COc1ccc2c(c1)CCN1Cc3c(OS(=O)(=O)c4cccc(F)c4)ccc(Br)c3CC21` (stereo not shown) [Compound 149, 12-bromo-3-methoxy-5,6,7,8,13,13a-hexahydroisoquinolino[2,1-b]isoquinolin-9-yl 3-fluorobenzenesulfonate], for which the “Activity in LDL uptake (relative to control)” value in assay [2] (setting [6]) and in assay [2] (setting [5]) was “+/+” throughout.
On to `COc1ccc2c(c1)CCN1Cc3c(cccc3OS(=O)(=O)c3cccc(F)c3)CC21` (stereo not shown) [Compound 150, 3-methoxy-5,6,7,8,13,13a-hexahydroisoquinolino[2,1-b]isoquinolin-9-yl 3-fluorobenzenesulfonate], for which the “Activity in LDL uptake (relative to control)” value in assay [2] (setting [6]) is “+”; in assay [2] (setting [5]), “++”.
Regarding `COc1ccc2c(c1)CCN1Cc3c(O)cccc3CC21` (stereo not shown) [Compound 151, 3-methoxy-5,6,7,8,13,13a-hexahydroisoquinolino[2,1-b]isoquinolin-9-ol], the “Activity in LDL uptake (relative to control)” value in assay [2] (setting [5]) is “+”.
